One data set relates to Miapaca. Nature of the data set: three day MTT cytotoxicity assay, Miapaca. It counts as cell-based, human. The following applies: for IC50 for cell lines Miapaca: 72 hours, MTT; for Specific Index (SI) for cell lines Miapaca: ratio of IC50 of NIH 3T3 cells to Miapaca.
Another data set concerns K562. In words: three day MTT cytotoxicity assay, K562. It counts as cell-based, human. Conditions: for IC50 for cell lines K562: K562, 72 hours, MTT; for Specific Index (SI) for cell lines K562: ratio of IC50 of NIH 3T3 cells to K562.
The next data set deals with DU145. In words: three day MTT cytotoxicity assay, DU145. It counts as cell-based, human. The following applies: DU145, 72 hours.
In the next data set the test system is NIH 3T3 cells. Nature of the data set: NIH3T3 cytotoxicity test (72 h MTT assay). The following applies: NIH3T3, 72 hours. It counts as cell-based. The protocol: The cytotoxic effect of chemicals upon NIH 3T3 cells in culture is measured by cell metabolism determination using the previously described MIT assay. Healthy NIH 3T3 cells (an established cell-line), when maintained in culture continuously divide and multiply over time. The basis of this test is that a cytotoxic chemical (regardless of site or mechanism of action) will interfere with this process and, thus, result in a reduction of the growth rate as reflected by cell number. The degree of inhibition of growth, related to the concentration of the test compound, provides an indication of toxicity.
The NIH 3T3 cells are maintained in culture and exposed to test compounds over a range of concentrations and the number of viable cells determined after 72 hours exposure by MIT assay. The number of cells in the presence of test chemicals are compared to that observed in control cultures and the percent inhibition of growth calculated. The IC50 concentration (i.e. the concentration producing 50% inhibition of growth) is determined and expressed as μg/ml. A ratio of IC50 of NIH 3T3 cells to tumor cells is an indicator of predicted toxicity of the molecule and is represented as “Safety Index”. The higher the value, the better is the predicted safety of the molecule.

The next data set relates to HBL100. Nature of the data set: three day MTT cytotoxicity assay, HBL100. It counts as cell-based, human. The following applies: for IC50 for cell lines HBL100: HBL100, 72 hours, MTT; for Specific Index (SI) for cell lines HBL100: ratio of IC50 of NIH 3T3 cells to HBL100. For orientation: Formazan colour is commonly taken as a measure of viable cells.
In a further data set the test system is A549. In words: three day MTT cytotoxicity assay, A549. It counts as cell-based, human. Conditions: for IC50 for cell lines A549: A549, 72 hours, MTT; for Specific Index (SI) for cell lines A549: ratio of IC50 of NIH 3T3 cells to A549.
The subject of a further data set is PA1. In words: three day MTT cytotoxicity assay, PA1. It counts as cell-based, human. Conditions: PA1, 72 hours.
The test system of the next data set is SW620. Nature of the data set: three day MTT cytotoxicity assay, SW620. It counts as cell-based, human. Conditions: SW620, 72 hours.

Data on 4 compounds can be found in patent US8022055B2, “Betulinic acid derivatives” (Dabur Pharma Limited, priority 2005, dated 2011).

Protocol for A549: (§1) A number of compounds listed in Table-3 were tested for cytotoxicity against prostate, lung, laryngeal, pancreas, breast, colon and ovarian cancer, leukemia and lymphoma, human tumor cell lines. Briefly, a three day MTT cytotoxicity assay was performed, which is based on the principle of uptake of MTT (3-(4,5-dimethylthiazol-2-yl)-2,5-diphenyl tetrazolium bromide), a tetrazolium salt, by the metabolically active cells where it is metabolized by active mitochondria into a blue colored formazan product that is read spectrophotometrically. MIT was dissolved in phosphate buffered saline with a pH of 7.4 to obtain an MIT concentration of 5 mg/ml; the resulting mixture was filtered through a 0.22-micron filter to sterilize and remove a small amount of insoluble residue. For each type of tumor cell, 10,000 to 15,000 cells were seeded in a 96-well culture plate and incubated with the individual betulinic acid derivatives in a CO2 incubator for a total of 72 hours. Control cells not treated with the betulinic acid derivatives were similarly incubated. The assay was terminated by adding 100 μg (20 μl) of MIT to each well then incubating for additional one hour, and finally adding 50 μl of 10% SDS-0.01N HCl to each well to lyse the cells and dissolve formazan. After incubating for one hour, the plate was read spectrophotometrically at 540 nm and the percentage of cytotoxicity calculated using the following formula: Cytotoxicity percentage=100×[1−(X/R1)], where X=(absorbance of treated sample at 540 nm)−(absorbance of blank at 540 nm) R1=absorbance of control sample at 540 nm. The IC50 Values of the cytotoxicity defined as the concentration at which 50% of the cells are killed in vitro was calculated for each cell line treated with each of the betulinic acid derivatives.
Protocol for K562: as §1
Protocol for Miapaca: as §1
Protocol for PA1: (§2) Briefly, a three day MTT cytotoxicity assay was performed, which is based on the principle of uptake of MTT (3-(4,5-dimethylthiazol-2-yl)-2,5-diphenyl tetrazolium bromide), a tetrazolium salt, by the metabolically active cells where it is metabolized by active mitochondria into a blue colored formazan product that is read spectrophotometrically. MIT was dissolved in phosphate buffered saline with a pH of 7.4 to obtain an MIT concentration of 5 mg/ml; the resulting mixture was filtered through a 0.22-micron filter to sterilize and remove a small amount of insoluble residue. For each type of tumor cell, 10,000 to 15,000 cells were seeded in a 96-well culture plate and incubated with the individual betulinic acid derivatives in a CO2 incubator for a total of 72 hours. Control cells not treated with the betulinic acid derivatives were similarly incubated. The assay was terminated by adding 100 μg (20 μl) of MIT to each well then incubating for additional one hour, and finally adding 50 μl of 10% SDS-0.01N HCl to each well to lyse the cells and dissolve formazan. After incubating for one hour, the plate was read spectrophotometrically at 540 nm and the percentage of cytotoxicity calculated using the following formula: Cytotoxicity percentage=100×[1−(X/R1)], where X=(absorbance of treated sample at 540 nm)−(absorbance of blank at 540 nm) R1=absorbance of control sample at 540 nm. The IC50 Values of the cytotoxicity defined as the concentration at which 50% of the cells are killed in vitro was calculated for each cell line treated with each of the betulinic acid derivatives.
Protocol for SW620: as §2

`C=C(C)[C@@H]1CC[C@]2(C(=O)O)CC[C@]3(C)C(CCC4[C@@]5(C)Cc6c(n(C)c7ccccc67)C(C)(C)C5CC[C@]43C)C12` (some centres unmarked) [Compound 3, 2,3-Didehydro-1′-methylindolo[2′,′:2,3]betulinic acid]: in the data set with Miapaca, the “IC50 for cell lines Miapaca” value was 5.34 ± 0.96 µg/mL and the “Specific Index (SI) for cell lines Miapaca” value is listed as 2.831. In addition, in the data set on K562, the “IC50 for cell lines K562” value stood at 7.73 ± 0.17 µg/mL and the “Specific Index (SI) for cell lines K562” value turned out to be 1.956. The “IC50 for cell lines DU145” value with DU145 was no less than 20 µg/mL. The “IC50 for cell lines NIH3T3” value in the data set with NIH 3T3 cells stood at 15.12 ± 3.04 µg/mL. In addition, in the data set on HBL100, the “IC50 for cell lines HBL100” value is 19.5 ± 2.1 µg/mL and the “Specific Index (SI) for cell lines HBL100” value came out at 0.775. Also, in the data set on A549, the “IC50 for cell lines A549” value was determined as 6.9 ± 0.21 µg/mL and the “Specific Index (SI) for cell lines A549” value amounted to 2.191.

With `CC(C)[C@@H]1CC[C@]2(C(=O)O)CC[C@]3(C)C(CCC4[C@@]5(C)Cc6c(n(C)c7ccccc67)C(C)(C)C5CC[C@]43C)C12` (some centres unmarked) [Compound 4, 2,3-Didehydro-20,29-dihydro-1′-methylindolo[2′,3′,2,3]betulinic acid], in the data set on Miapaca, the “IC50 for cell lines Miapaca” value came to 5.4 ± 0.43 µg/mL and the “Specific Index (SI) for cell lines Miapaca” value is listed as greater than 3.703. Further, in the data set with K562, the “IC50 for cell lines K562” value is 10.85 ± 1.5 µg/mL and the “Specific Index (SI) for cell lines K562” value is listed as greater than 1.843. In addition, in the data set on DU145, the “IC50 for cell lines DU145” value is greater than 20 µg/mL. Besides, the “IC50 for cell lines NIH3T3” value with NIH 3T3 cells is greater than 20 µg/mL. Moreover, in the data set with HBL100, the “IC50 for cell lines HBL100” value amounted to 14.14 ± 0.8 µg/mL and the “Specific Index (SI) for cell lines HBL100” value is reported as greater than 1.414. Also, the “IC50 for cell lines PA1” value in the data set with PA1 was greater than 20 µg/mL. Further, in the data set with A549, the “IC50 for cell lines A549” value was 6.5 ± 3.4 µg/mL and the “Specific Index (SI) for cell lines A549” value is reported as greater than 3.076.

Consider `C=C(C)[C@@H]1CC[C@]2(C(=O)O)CC[C@]3(C)[C@H](CC[C@@H]4[C@@]5(C)Cc6c([nH]c7ccc(F)cc67)C(C)(C)[C@@H]5CC[C@]43C)[C@@H]12` [Compound 7, 2,3-Didehydro-5′-fluoroindolo[2′,′:2,3]betulinic acid], for which, in the data set on Miapaca, the “IC50 for cell lines Miapaca” value was found to be 17.4 ± 2.6 µg/mL and the “Specific Index (SI) for cell lines Miapaca” value is on record as greater than 1.149. For the same compound, in the data set on K562, the “IC50 for cell lines K562” value came out at 10.95 ± 0.93 µg/mL and the “Specific Index (SI) for cell lines K562” value was greater than 1.826. The “IC50 for cell lines SW620” value in the data set with SW620 worked out at 9.16 µg/mL. Also, the “IC50 for cell lines NIH3T3” value in the data set with NIH 3T3 cells was greater than 20 µg/mL. For the same compound, the “IC50 for cell lines HBL100” value with HBL100 was greater than 20 µg/mL. In addition, in the data set on A549, the “IC50 for cell lines A549” value came out at 17.8 ± 1.79 µg/mL and the “Specific Index (SI) for cell lines A549” value was greater than 1.123.

In the case of `CC(C)[C@@H]1CC[C@]2(C(=O)O)CC[C@]3(C)[C@H](CC[C@@H]4[C@@]5(C)Cc6c(oc7ccccc67)C(C)(C)[C@@H]5CC[C@]43C)[C@@H]12` [Compound 12, 2,3-Didehydro-20,29-dihydrobenzfurano[2′,3′:2,3]betulinic acid], in the data set on Miapaca, the “IC50 for cell lines Miapaca” value is 8.8 ± 0.36 µg/mL and the “Specific Index (SI) for cell lines Miapaca” value came to 2.273. In the data set on K562, the “IC50 for cell lines K562” value amounted to 15.28 ± 0.18 µg/mL and the “Specific Index (SI) for cell lines K562” value was 1.309. Moreover, in the data set with DU145, the “IC50 for cell lines DU145” value is greater than 20 µg/mL. The “IC50 for cell lines NIH3T3” value in the data set with NIH 3T3 cells stood at 20 ± 5.6 µg/mL. In addition, in the data set with HBL100, the “IC50 for cell lines HBL100” value was greater than 20 µg/mL and the “Specific Index (SI) for cell lines HBL100” value is less than 1. Moreover, in the data set on PA1, the “IC50 for cell lines PA1” value is greater than 20 µg/mL. Moreover, in the data set on A549, the “IC50 for cell lines A549” value was determined as 7.1 ± 1.6 µg/mL and the “Specific Index (SI) for cell lines A549” value turned out to be 2.817.
